Test results reported in PubChem BioAssay (NCI).
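These data come from cells grown in 96-well plates and exposed to compound for 48 hours at five concentrations. At the GI50, growth is halved. At the TGI there is no net growth.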

Columns and labels:
Test in all cases: NCI anticancer screen, dose series, 48 h
[1] = tested on: OVCAR-8 ovarian
[2] = tested on: EKVX NSCLC
[3] = tested on: NCI-H23 lung
[4] = tested on: KM12 colon
[5] = tested on: UO-31 renal
[6] = tested on: K-562 leukemia
[7] = tested on: SW-620 colon
[8] = tested on: HL-60(TB) leukemia
[9] = tested on: SNB-19 CNS
[10] = tested on: DU-145 prostate

| SMILES | TGI [1] | GI50 [2] | TGI [2] | TGI [3] | TGI [4] | TGI [5] | TGI [6] | TGI [7] | GI50 [8] | TGI [8] | TGI [9] | GI50 [1] | GI50 [3] | GI50 [5] | GI50 [6] | GI50 [9] | GI50 [4] | GI50 [10] | TGI [10] | GI50 [7] |
| --- | --- | --- | --- | --- | --- | --- | --- | --- | --- | --- | --- | --- | --- | --- | --- | --- | --- | --- | --- | --- |
| CC1(C)OC2OC(COC(=O)C(c3ccccc3)c3ccccc3)C3OC(C)(C)OC3C2O1 (configuration not stated) | > 100 µM | > 100 µM | > 100 µM | > 100 µM | > 100 µM | > 100 µM | > 100 µM | > 100 µM | 2.99 µM | 13.8 µM | > 100 µM | – | – | – | – | – | – | – | – | – |
| CC1CCC2c3c([nH]c4ccccc34)C3C(=O)N(c4ccccc4)C(=O)C3C2C1 (configuration not stated) | > 250 µM | – | > 250 µM | > 250 µM | > 250 µM | > 250 µM | 202 µM | > 250 µM | – | > 250 µM | > 250 µM | > 250 µM | 30.3 µM | 117 µM | 54.8 µM | 69.2 µM | – | – | – | – |
| CC1=C(C(=O)CC(=O)C(=O)Nc2ccccc2C)Sc2ccccc2N1 | > 100 µM | – | > 100 µM | > 100 µM | > 100 µM | > 100 µM | > 100 µM | > 54.1 µM | – | > 100 µM | > 100 µM | – | – | – | – | – | – | – | – | – |
| O=C1c2ccoc2C(=O)c2oc(=O)ccc21 | 14.9 µM | – | 35.2 µM | 4.01 µM | > 57.7 µM | 14.9 µM | 22.4 µM | 11.5 µM | – | 6.8 µM | 31 µM | – | – | – | – | – | – | – | – | – |
| CC(=O)OC1COC(Oc2c(C)c3c4c(c2O)[C@@H](C)CC[C@@H]4[C@@H](C)C[C@H]3C=C(C)C)C(O)C1O (some centres not stated) | 50.3 µM | – | – | 33.2 µM | 33.8 µM | > 100 µM | 27.1 µM | – | – | – | 73.7 µM | 20.6 µM | 16.6 µM | 25.1 µM | 10.3 µM | 28.8 µM | 17.7 µM | 13.7 µM | 30.7 µM | – |
| c1ccc2c(c1)[O][Sn][O]2 | > 150 µg/mL | > 150 µg/mL | > 150 µg/mL | 113 µg/mL | > 150 µg/mL | > 150 µg/mL | > 150 µg/mL | > 150 µg/mL | 1.55 µg/mL | 6.37 µg/mL | > 150 µg/mL | 45.3 µg/mL | 21.3 µg/mL | 12.6 µg/mL | 91.6 µg/mL | 61.5 µg/mL | 21.8 µg/mL | – | – | 69 µg/mL |
| CCOC(=O)COc1cccc2occc(=O)c12 | > 100 µM | – | > 100 µM | > 100 µM | > 100 µM | > 100 µM | > 100 µM | > 100 µM | – | > 100 µM | > 100 µM | – | – | – | – | – | – | – | – | – |
| Cc1ccc(C(=O)N2C/C(=C/c3ccccc3)C(=O)/C(=C/c3ccccc3)C2)cc1 | > 100 µM | – | – | > 100 µM | 6.94 µM | > 100 µM | > 100 µM | > 59.3 µM | 18.8 µM | > 100 µM | > 100 µM | 5.09 µM | 8.86 µM | 10.2 µM | 1.66 µM | 9.51 µM | 1.43 µM | 17.8 µM | > 100 µM | 2.94 µM |
| O=C(CCC(=O)C1Cc2ccccc2C1=O)Nc1cccc(C(F)(F)F)c1 (configuration not stated) | > 100 µM | – | > 100 µM | > 100 µM | > 100 µM | > 100 µM | > 100 µM | > 100 µM | – | > 100 µM | > 100 µM | – | – | – | – | – | – | – | – | – |
| CC(C)(C)c1cc(C(OCCl)(C(F)(F)F)C(F)(F)F)c2c(c1)C(C(F)(F)F)(C(F)(F)F)OC21c2ccccc2C(=O)c2ccccc21 | > 100 µM | – | > 100 µM | > 100 µM | > 100 µM | > 100 µM | > 100 µM | > 100 µM | – | – | > 100 µM | – | – | – | – | – | – | – | – | – |
| O=CC(O)C(O)C(OC1OC(CO)C(O)C(O)C1O)C(O)CO (configuration not stated) (tested in a mixture with another compound) | > 100 µM | – | – | > 100 µM | 50.8 µM | > 100 µM | 98.7 µM | > 100 µM | – | 64.1 µM | > 100 µM | – | – | – | – | – | – | – | > 100 µM | – |
| CC1(C)N=C(N)N=C(N)N1c1ccc(OCCCCNC(=O)Nc2cccc(S(=O)(=O)F)c2)c(Cl)c1 | > 100 µM | – | – | – | > 100 µM | > 100 µM | > 100 µM | > 100 µM | 0.61 µM | > 100 µM | > 100 µM | 4.28 µM | – | 40.5 µM | 0.351 µM | 2.91 µM | 2.64 µM | 3.83 µM | > 100 µM | 0.657 µM |
| Nc1nc(-c2ccccc2)cc(-c2cc(Cl)ccc2O)n1 | > 100 µM | – | > 100 µM | > 100 µM | > 100 µM | > 100 µM | > 100 µM | > 100 µM | – | > 100 µM | > 100 µM | – | – | – | – | – | – | – | – | – |
| O=c1c2cccc3cccc(c4n1CCCN=4)c32 | > 100 µM | – | > 100 µM | > 100 µM | > 100 µM | > 100 µM | > 100 µM | > 100 µM | – | > 100 µM | – | – | – | – | – | – | – | – | – | – |
| O=C(O)Cn1ccc(=O)c2c([N+](=O)[O-])cccc21 | > 100 µM | – | – | > 100 µM | > 100 µM | > 100 µM | > 100 µM | > 100 µM | – | > 100 µM | > 100 µM | – | – | – | – | – | – | – | > 100 µM | – |
| COc1ncc2cc1NS(=O)(=O)c1cccc(c1)C(=O)NCC1=CC=C(S1)c1ncnc3c1SC2=C3C | 15.5 µM | 0.234 µM | 2.54 µM | – | 1.34 µM | 1.7 µM | > 100 µM | 3.31 µM | – | – | – | 0.58 µM | – | 0.0733 µM | 0.596 µM | – | 0.269 µM | 0.42 µM | 3.4 µM | 0.49 µM |
| COc1ccc2c3c(c(C(=O)O)oc13)C(CCC(=O)O)CC2 (configuration not stated) | > 100 µM | – | > 100 µM | > 100 µM | – | – | – | > 100 µM | – | – | > 100 µM | – | – | – | – | – | – | – | – | – |
| O=C(Nc1ccc(Br)cc1)Nc1cccc(Br)c1 | – | – | – | – | – | – | – | > 100 µM | – | – | > 100 µM | – | – | – | – | 11.1 µM | – | 5.8 µM | > 100 µM | 5.54 µM |
| CN(C)CCNC(=O)c1cccc2cc3ccc4ccccc4c3nc12 | 0.316 µM | – | 0.495 µM | 0.39 µM | 1.2 µM | 0.218 µM | > 100 µM | 1.19 µM | – | 0.27 µM | 0.919 µM | – | – | – | – | – | – | – | – | – |
| CCOC(=O)C1=CSC2=NC3=C(CCC/C3=C\c3cc(OC)c(OC)c(OC)c3)C(c3cc(OC)c(OC)c(OC)c3)N12 (configuration not stated) | > 100 µM | > 100 µM | > 100 µM | – | – | – | – | > 100 µM | – | – | – | 0.376 µM | – | – | – | – | – | 3.48 µM | > 100 µM | 1.54 µM |
